Laboratory results: ChEMBL document CHEMBL5291721, “A preclinical secondary pharmacology resource illuminates target-adverse drug reaction associations of marketed drugs” (Nat Commun, 2023)

Experiments:
[1] = target: T1, Alpha-1A adrenergic receptor (Homo sapiens, UniProt P35348); assay type: functional, cell-based
T1 sequence (P35348 whole entry): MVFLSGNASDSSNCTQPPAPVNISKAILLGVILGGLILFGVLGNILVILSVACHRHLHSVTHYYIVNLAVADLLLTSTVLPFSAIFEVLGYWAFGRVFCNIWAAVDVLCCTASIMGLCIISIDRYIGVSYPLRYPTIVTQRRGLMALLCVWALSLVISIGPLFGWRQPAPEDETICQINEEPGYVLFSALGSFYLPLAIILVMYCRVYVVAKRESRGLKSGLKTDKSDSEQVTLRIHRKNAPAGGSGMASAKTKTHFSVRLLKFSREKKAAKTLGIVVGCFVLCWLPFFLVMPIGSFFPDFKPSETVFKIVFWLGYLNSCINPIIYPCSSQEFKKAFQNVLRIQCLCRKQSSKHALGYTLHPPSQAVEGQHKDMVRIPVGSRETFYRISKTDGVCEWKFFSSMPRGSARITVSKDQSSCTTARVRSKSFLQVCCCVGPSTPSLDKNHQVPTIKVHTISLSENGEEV

[2] = target: Beta-1 adrenergic receptor (Homo sapiens, UniProt P08588); assay type: functional
[3] = target: Beta-2 adrenergic receptor (Homo sapiens, UniProt P07550)
[4] = target: T2, Cholecystokinin receptor type A (Homo sapiens, UniProt P32238)
T2 sequence (P32238 whole entry): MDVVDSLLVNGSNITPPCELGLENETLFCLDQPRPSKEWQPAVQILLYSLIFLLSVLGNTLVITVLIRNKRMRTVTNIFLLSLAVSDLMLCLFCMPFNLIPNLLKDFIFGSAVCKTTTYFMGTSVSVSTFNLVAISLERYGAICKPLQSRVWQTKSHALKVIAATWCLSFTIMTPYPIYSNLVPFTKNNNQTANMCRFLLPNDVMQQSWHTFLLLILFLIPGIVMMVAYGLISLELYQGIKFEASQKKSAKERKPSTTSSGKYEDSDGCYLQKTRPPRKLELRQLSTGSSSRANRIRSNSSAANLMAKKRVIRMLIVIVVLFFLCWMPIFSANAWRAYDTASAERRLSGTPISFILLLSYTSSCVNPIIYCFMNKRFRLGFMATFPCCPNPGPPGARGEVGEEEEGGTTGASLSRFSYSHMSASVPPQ

[5] = target: T3, Muscarinic acetylcholine receptor M2 (Homo sapiens, UniProt P08172); assay type: functional, cell-based
T3 sequence (P08172 whole entry): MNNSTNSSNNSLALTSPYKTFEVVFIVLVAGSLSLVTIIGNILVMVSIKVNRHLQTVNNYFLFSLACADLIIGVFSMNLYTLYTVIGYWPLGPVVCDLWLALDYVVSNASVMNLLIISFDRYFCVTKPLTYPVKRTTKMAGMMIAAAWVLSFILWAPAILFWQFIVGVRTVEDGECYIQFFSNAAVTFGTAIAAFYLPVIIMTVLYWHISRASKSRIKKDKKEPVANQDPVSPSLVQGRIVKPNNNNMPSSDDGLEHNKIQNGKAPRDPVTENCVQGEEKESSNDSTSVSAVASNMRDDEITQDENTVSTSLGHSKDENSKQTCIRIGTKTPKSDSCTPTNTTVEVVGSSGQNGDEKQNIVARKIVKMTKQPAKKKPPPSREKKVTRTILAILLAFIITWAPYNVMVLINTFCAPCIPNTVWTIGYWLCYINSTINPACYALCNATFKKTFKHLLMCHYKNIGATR

[6] = target: Muscarinic acetylcholine receptor M3 (Homo sapiens, UniProt P20309)
[7] = target: Gamma-aminobutyric acid receptor subunit alpha-1 (Rattus norvegicus, UniProt P62813); assay type: functional
[8] = target: Glutamate receptor ionotropic, NMDA 1 (Rattus norvegicus, UniProt P35439)
[9] = target: 5-hydroxytryptamine receptor 2A (Homo sapiens, UniProt P28223); assay type: functional, cell-based
[10] = target: Voltage-gated inwardly rectifying potassium channel KCNH2 (Homo sapiens, UniProt Q12809); assay type: functional; settings: read-out: AC50
[11] = target: Melanocortin receptor 3 (Homo sapiens, UniProt P41968)
[12] = target: Mu-type opioid receptor (Homo sapiens, UniProt P35372); assay: biochemical; assay type: functional
[13] = target: T4, Equilibrative nucleoside transporter 1 (Homo sapiens, UniProt Q99808)
T4 sequence (Q99808 whole entry): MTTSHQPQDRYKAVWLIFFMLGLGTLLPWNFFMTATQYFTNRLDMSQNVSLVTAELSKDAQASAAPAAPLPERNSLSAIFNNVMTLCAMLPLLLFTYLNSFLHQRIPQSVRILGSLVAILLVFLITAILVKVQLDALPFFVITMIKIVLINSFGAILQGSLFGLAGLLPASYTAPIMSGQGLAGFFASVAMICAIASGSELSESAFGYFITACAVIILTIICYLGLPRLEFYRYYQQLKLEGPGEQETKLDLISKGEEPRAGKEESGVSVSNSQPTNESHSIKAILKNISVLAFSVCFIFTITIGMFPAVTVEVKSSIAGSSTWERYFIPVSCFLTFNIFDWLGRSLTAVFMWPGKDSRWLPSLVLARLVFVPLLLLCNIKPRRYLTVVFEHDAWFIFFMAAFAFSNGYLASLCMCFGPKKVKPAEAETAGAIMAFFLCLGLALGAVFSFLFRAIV

[14] = target: Sodium-dependent serotonin transporter (Homo sapiens, UniProt P31645)
[15] = target: D(3) dopamine receptor (Homo sapiens, UniProt P35462)
Also: assay procedure not described here.

Chain of Muscarinic acetylcholine receptor M3 (P20309 whole entry): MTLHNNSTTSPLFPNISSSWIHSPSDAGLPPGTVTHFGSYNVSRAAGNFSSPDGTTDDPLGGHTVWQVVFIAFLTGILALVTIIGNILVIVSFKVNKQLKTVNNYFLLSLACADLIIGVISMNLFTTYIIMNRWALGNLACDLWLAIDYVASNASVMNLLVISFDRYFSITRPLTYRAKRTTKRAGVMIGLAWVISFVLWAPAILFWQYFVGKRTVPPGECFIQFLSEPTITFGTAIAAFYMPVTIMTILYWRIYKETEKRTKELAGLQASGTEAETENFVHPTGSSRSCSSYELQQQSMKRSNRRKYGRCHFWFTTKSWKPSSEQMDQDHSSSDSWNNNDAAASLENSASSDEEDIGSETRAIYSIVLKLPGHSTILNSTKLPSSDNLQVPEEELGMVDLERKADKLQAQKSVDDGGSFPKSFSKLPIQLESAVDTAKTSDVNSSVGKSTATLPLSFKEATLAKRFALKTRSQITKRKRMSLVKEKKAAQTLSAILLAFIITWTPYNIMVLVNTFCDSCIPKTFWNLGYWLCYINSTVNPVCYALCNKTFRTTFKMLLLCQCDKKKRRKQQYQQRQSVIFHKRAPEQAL
Chain of Mu-type opioid receptor (P35372 whole entry): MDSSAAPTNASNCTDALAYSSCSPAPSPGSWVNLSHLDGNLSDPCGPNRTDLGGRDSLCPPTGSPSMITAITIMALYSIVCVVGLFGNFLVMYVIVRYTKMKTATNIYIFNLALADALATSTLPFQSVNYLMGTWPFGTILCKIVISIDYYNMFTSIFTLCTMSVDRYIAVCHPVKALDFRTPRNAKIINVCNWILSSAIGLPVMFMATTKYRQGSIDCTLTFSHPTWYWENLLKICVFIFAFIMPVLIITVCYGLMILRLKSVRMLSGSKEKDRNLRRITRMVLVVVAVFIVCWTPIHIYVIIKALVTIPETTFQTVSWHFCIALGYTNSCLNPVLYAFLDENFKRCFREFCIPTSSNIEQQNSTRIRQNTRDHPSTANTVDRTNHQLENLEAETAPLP
Chain of Sodium-dependent serotonin transporter (P31645 whole entry): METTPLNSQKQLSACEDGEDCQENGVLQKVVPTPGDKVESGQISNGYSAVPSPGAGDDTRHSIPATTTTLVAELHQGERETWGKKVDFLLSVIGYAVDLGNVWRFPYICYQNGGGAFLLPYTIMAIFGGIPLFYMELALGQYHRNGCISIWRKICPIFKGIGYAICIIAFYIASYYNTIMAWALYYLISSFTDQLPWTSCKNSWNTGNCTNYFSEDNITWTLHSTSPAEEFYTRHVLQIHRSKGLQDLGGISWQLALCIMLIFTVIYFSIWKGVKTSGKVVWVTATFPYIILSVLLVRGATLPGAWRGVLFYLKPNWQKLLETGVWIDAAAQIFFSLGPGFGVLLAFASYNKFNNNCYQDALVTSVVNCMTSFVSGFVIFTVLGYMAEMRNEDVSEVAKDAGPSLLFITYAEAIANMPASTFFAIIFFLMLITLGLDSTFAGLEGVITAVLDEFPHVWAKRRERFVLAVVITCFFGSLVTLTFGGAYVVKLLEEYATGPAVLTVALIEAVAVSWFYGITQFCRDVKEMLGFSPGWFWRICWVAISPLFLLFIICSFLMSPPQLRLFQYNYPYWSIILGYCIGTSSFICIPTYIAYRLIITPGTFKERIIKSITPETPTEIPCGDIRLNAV
Chain of 5-hydroxytryptamine receptor 2A (P28223 whole entry): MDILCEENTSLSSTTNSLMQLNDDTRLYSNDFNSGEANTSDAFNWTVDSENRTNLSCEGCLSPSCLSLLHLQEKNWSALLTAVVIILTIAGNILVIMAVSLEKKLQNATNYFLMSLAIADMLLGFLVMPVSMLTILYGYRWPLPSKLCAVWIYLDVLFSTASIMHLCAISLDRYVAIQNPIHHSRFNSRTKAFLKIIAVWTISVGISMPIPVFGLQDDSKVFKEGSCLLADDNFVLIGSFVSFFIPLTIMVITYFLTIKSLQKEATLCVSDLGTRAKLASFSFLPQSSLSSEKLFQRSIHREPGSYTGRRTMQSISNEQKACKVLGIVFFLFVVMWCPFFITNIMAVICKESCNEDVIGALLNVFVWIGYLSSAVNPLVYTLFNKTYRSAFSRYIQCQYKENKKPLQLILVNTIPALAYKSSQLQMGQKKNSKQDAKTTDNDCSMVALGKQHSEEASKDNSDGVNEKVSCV
Chain of Gamma-aminobutyric acid receptor subunit alpha-1 (P62813 whole entry): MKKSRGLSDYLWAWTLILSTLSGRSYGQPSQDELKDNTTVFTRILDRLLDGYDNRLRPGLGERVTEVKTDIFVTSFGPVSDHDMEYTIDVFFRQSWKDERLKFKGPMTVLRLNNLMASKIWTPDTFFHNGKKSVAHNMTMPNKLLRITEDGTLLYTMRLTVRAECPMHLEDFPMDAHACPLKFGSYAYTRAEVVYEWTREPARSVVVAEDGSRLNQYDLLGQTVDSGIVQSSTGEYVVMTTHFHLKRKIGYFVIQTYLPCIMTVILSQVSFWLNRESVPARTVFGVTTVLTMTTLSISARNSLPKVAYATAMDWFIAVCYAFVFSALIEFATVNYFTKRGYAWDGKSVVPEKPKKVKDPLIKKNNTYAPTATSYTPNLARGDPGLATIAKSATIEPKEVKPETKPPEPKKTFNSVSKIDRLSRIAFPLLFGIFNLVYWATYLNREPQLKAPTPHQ
Chain of Melanocortin receptor 3 (P41968 whole entry): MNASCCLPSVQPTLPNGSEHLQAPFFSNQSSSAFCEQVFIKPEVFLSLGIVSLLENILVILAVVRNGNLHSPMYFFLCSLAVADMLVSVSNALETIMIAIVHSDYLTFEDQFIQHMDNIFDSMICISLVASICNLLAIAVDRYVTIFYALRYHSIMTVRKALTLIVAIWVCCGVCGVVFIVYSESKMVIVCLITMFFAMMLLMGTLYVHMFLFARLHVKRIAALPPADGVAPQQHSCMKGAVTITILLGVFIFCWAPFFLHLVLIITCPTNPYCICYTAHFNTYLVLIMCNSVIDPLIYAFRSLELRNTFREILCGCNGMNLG
Chain of D(3) dopamine receptor (P35462 whole entry): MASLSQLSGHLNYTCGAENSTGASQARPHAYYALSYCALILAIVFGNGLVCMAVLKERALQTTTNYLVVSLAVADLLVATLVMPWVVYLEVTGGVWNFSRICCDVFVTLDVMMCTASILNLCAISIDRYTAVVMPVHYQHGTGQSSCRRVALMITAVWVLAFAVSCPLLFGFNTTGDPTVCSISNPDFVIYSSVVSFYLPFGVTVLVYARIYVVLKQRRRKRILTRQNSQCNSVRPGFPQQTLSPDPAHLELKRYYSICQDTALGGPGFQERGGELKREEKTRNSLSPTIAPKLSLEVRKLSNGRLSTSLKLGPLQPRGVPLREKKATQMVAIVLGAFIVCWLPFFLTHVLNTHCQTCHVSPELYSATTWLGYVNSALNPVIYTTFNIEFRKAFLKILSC
Chain of Beta-1 adrenergic receptor (P08588 whole entry): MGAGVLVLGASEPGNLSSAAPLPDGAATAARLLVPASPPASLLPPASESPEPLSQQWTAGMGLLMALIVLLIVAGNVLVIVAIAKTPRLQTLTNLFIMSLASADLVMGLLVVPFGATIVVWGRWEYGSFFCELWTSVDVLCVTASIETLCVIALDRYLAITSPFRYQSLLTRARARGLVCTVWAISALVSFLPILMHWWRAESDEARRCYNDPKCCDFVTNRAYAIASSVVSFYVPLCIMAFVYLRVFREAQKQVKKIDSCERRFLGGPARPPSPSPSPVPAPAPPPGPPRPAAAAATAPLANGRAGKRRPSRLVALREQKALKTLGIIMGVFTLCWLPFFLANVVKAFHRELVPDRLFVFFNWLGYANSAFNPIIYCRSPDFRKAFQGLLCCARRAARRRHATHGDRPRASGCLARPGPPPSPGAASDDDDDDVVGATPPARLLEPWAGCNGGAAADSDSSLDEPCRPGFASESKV
Chain of Beta-2 adrenergic receptor (P07550 whole entry): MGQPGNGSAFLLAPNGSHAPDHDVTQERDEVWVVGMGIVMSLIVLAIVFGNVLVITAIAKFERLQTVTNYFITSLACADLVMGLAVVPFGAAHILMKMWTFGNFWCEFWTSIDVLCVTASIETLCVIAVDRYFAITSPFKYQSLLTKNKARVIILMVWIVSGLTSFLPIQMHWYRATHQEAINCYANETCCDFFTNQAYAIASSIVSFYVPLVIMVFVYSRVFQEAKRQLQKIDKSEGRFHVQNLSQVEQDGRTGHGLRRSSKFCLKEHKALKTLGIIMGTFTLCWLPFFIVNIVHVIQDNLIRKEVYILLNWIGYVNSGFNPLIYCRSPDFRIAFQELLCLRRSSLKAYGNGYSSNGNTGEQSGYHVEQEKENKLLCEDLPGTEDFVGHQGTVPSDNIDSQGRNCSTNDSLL

AC50 [1] [µM] | AC50 [2] [µM] | AC50 [3] [µM] | AC50 [4] [µM] | AC50 [5] [µM] | AC50 [6] [µM] | AC50 [7] [µM] | AC50 [8] [µM] | AC50 [9] [µM] | AC50 [11] [µM] | AC50 [12] [µM] | AC50 [13] [µM] | AC50 [14] [µM] | AC50 [15] [µM] | Compound | AC50 [10] [µM]
> 30 | > 30 | > 30 | > 30 | > 30 | > 30 | > 30 | > 30 | 2.9 | > 30 | > 30 | > 30 | > 30 | > 30 | O=C(OCCN1CCOCC1)c1cccnc1Nc1cccc(C(F)(F)F)c1 [MORNIFLUMATE] | 4.35
12 | 11 | 11 | > 30 | 16 | 1.7 | > 30 | > 30 | 3.9 | 5.1 | > 30 | 17 | 0.91 | 2 | CCCCCCCCOc1ccccc1C(=O)Nc1ccc(C(=O)OCC[N+](C)(CC)CC)cc1 [OTILONIUM BROMIDE] | 0.66
> 30 | > 10 | > 10 | > 10 | > 30 | > 30 | > 30 | > 30 | > 30 | > 10 | > 30 | > 30 | > 10 | > 30 | O=C(O)CCCc1ccccc1 [PHENYLBUTANOIC ACID] | > 30
> 30 | > 30 | > 30 | > 30 | > 30 | > 30 | > 30 | > 30 | > 30 | > 30 | > 30 | > 30 | > 30 | > 30 | Cc1nc2ccc(CN(C)c3ccc(C(=O)N[C@@H](CCC(=O)O)C(=O)O)s3)cc2c(=O)[nH]1 [RALTITREXED] | > 30

Further lines, the compound ahead of its results:

Compound | AC50 [1] [µM] | AC50 [2] [µM] | AC50 [3] [µM] | AC50 [4] [µM] | AC50 [5] [µM] | AC50 [6] [µM] | AC50 [7] [µM] | AC50 [8] [µM] | AC50 [9] [µM] | AC50 [11] [µM] | AC50 [12] [µM] | AC50 [13] [µM] | AC50 [14] [µM] | AC50 [15] [µM] | AC50 [10] [µM]
COc1ccc(C(=O)NCc2ccc(OCCN(C)C)cc2)cc1OC [ITOPRIDE] | > 30 | > 30 | > 30 | > 30 | > 30 | > 30 | > 30 | > 30 | > 30 | > 30 | > 30 | > 30 | > 30 | 20 | > 30
O=C(O)Cc1cn(-c2ccccc2)nc1-c1ccc(Cl)cc1 [LONAZOLAC] | > 30 | > 30 | > 30 | > 30 | > 30 | > 30 | > 30 | > 30 | > 30 | > 30 | > 30 | > 30 | > 30 | > 30 | > 30
C#C[C@]1(O)CC[C@H]2[C@@H]3CCC4=CCCC[C@@H]4[C@H]3CC[C@@]21C [LYNESTRENOL] | > 30 | > 30 | > 30 | > 30 | > 30 | > 30 | > 30 | > 30 | > 30 | > 30 | > 30 | > 30 | > 30 | > 30 | > 30
